Measurements reported in PMC12748266, “Testing antimicrobial peptides inhibiting protein synthesis in living E. coli and K. pneumoniae using bio-orthogonal non-canonical amino-acid tagging” (Frontiers in Microbiology, 2025).
No end group written: not given here.

Test system: K. pneumoniae ribosomes
Experiment: In vitro translation assay (PURExpress, firefly luciferase) with purified ribosomes
Type: biochemical, K. pneumoniae ATCC 13883
Details: peptide at 5 μM, 30 min, 32 °C, luciferase luminescence, water control = 100%
Method: The ribosomes used in this study were purified as described previously ([Di Stasi et al., 2025]). Briefly, to purify the 70S ribosomes of ESKAPE pathogens, the bacterial strains E. faecium ATCC 19434 S. aureus ATCC 25923, K. pneumoniae ATCC 13883, A. baumannii ATCC 19606, P. aeruginosa ATCC 27853 and E. cloacae ATCC 13047 were grown in 2 L of Luria-Bertani (LB) medium, at 37 °C, until the mid-log phase was reached. After centrifugation at 7,000 rpm (12,000 × g) for 15 min at 20 °C (JLA rotor 8.1000), the bacterial pellet was resuspended in 50 mL of saline (0.9% w/v NaCl) and re-centrifuged at 15,000 rpm (27,000 × g) for 10 min at 20 °C (JA rotor 25.50). […] Finally, the solution was cleared of the last remaining impurities by centrifugation at 15,000 rpm (18,000 × g) for 15 min at 4 °C, and the ribosomes subjected to quantification by Nanodrop (A260). […]
The in vitro translation assay was performed by using the Δ ribosome from the E. coli PURExpress system New England Biolabs (NEB), as reported previously ([Di Stasi et al., 2025]; [Raulf et al., 2025]). […] Finally, 40 μL of luciferase assay substrate solution were added to the wells (Promega, E1501), and the luminescence measured using a plate reader (Tecan Infinite 200 PRO). The negative control of the test was nuclease-free water in place of the antibiotic, whose values were used to normalize the absolute luminescence values of the samples. […]

## RRIRPRPPRLPRPRPR [Bac7(1–16)]
  Inhibition of in vitro protein synthesis: 90%
